Reference: US20210330611A1, “THERAPY FOR NEUROLOGICAL DISEASES/DISORDERS” (priority 2020, published 2021)
Structures can show the parent of a compound that is named as a salt. Where two headings read alike, the source gives them in different places.

Experiments:
[1] = tested on: fibrin-induced microglia activation; test: Image-based assay of fibrin-induced microglia activation (HTS and dose response); format: cell-based, rat; details: for inhibition at 10 µM: Rattus norvegicus, Microglia, read-out: Fibrin % inhibition
[2] = tested on: LPS-induced microglia activation; test: Image-based assay of LPS-induced microglia activation (HTS and dose response); format: cell-based, rat; details: for inhibition at 10 µM: Rattus norvegicus, Microglia, read-out: LPS % inhibition
[3] = tested on: fibrin- and LPS-induced microglia activation; test: cells; format: cell-based, rat
primary rat microglia [4] = test: Cell toxicity (dead cells, size <150 μm2) in LPS assay
primary rat microglia [5] = test: Cell toxicity (dead cells, size <150 μm2) in coated fibrin (cFib) assay;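 note: share of dead cells sized under 150 µm2 at 10 µM in fibrin-stimulated microglia HTS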
[6] = primary microglia HTS, fibrin stimulation, activation = cell size >800 μm2
[7] = 48 h, primary microglia HTS, LPS stimulation, activation = cell size >800 μm2
[8] = quadrant by fibrin and LPS inhibition in HTS of 1907 compounds
[9] = primary microglia HTS, LPS stimulation, toxicity = cell size <150 μm2
[10] = primary microglia HTS, fibrin stimulation, toxicity = cell size <150 μm2
[11] = primary microglia HTS, 10 μM, fibrin-stimulated, cell size >800 μm^2 as marker of activation
[12] = primary microglia HTS, 10 μM, LPS-stimulated, cell size >800 μm^2 as marker of activation
[13] = HTS of 1907 compounds, quadrant by fibrin and LPS inhibition
[14] = primary microglia HTS, 10 μM, LPS assay, cell size <150 μm^2 as marker of toxicity
[15] = primary microglia HTS, 10 μM, fibrin assay, cell size <150 μm^2 as marker of toxicity
[16] = primary HTS, 10 μM, fibrin-stimulated primary microglia
[17] = primary HTS, 10 μM, LPS-stimulated primary microglia
[18] = primary HTS, 10 μM, LPS assay, dead cells size <150 μm2
[19] = primary HTS, 10 μM, fibrin assay, dead cells size <150 μm2
[20] = primary microglia HTS, fibrin stimulation, increased cell size (>800 μm^2) as marker of activation
[21] = 48 h, primary microglia HTS, LPS stimulation, increased cell size (>800 μm^2) as marker of activation
[22] = primary microglia HTS, LPS stimulation, decreased size (<150 μm^2) as marker of toxicity
[23] = primary microglia HTS, fibrin stimulation, decreased size (<150 μm^2) as marker of toxicity

Nc1nnc(-c2cccc(Cl)c2Cl)c(N)n1 [Lamotrigine]
inhibition at 10 µM [1, 6]: -12% | inhibition at 10 µM [2, 7]: 12% | Quadrant (FIG. 5b) [3, 8]: Q4 | LPS % cell toxicity (primary rat microglia [4]; [9]): 0% | Fibrin % cell toxicity (primary rat microglia [5]; [10]): 1%

COc1ccc(CN2CCN(C(c3ccc(F)cc3)c3ccc(F)cc3)CC2)c(OC)c1OC [Lomerizine, Lomerizine Dihydrochloride]
Fibrin % inhibition [1, 6]: −5% | LPS % inhibition ([2]; primary microglia HTS, LPS stimulation, activation = cell size >800 μm2): 8% | Quadrant (FIG. 5b) [3, 8]: Q4 | LPS % cell toxicity (primary rat microglia [4]; [9]): 0% | Fibrin % cell toxicity (primary rat microglia [5]; [10]): 1%

CCN(CC)CCNC(=O)c1cc(S(C)(=O)=O)ccc1OC [Tiapride]
inhibition at 10 µM [1, 11]: -18% | inhibition at 10 µM [2, 12]: 6% | Quadrant (FIG. 5b) [3, 13]: Q4 | LPS % cell toxicity (primary rat microglia [4]; [14]): 0% | Fibrin % cell toxicity (primary rat microglia [5]; [15]): 0%

Cc1cc(C2CCCCC2)n(O)c(=O)c1 [Ciclopirox]
inhibition at 10 µM [1, 16]: -1% | inhibition at 10 µM [2, 17]: 40% | Quadrant (FIG. 5b) ([3]; primary HTS, 10 μM): Q4 | LPS % cell toxicity (primary rat microglia [4]; [18]): 1% | Fibrin % cell toxicity (primary rat microglia [5]; [19]): 1%

CN1C(C(=O)Nc2ccccn2)=C(O)c2sc(Cl)cc2S1(=O)=O [Lornoxicam]
inhibition at 10 µM [1, 20]: 22% | inhibition at 10 µM [2, 21]: 10% | Quadrant (FIG. 5b) [3, 8]: Q4 | LPS % cell toxicity (primary rat microglia [4]; [22]): 1% | Fibrin % cell toxicity (primary rat microglia [5]; [23]): 0%

Nc1c2ccccc2nc2ccccc12 [Aminacrine]
inhibition at 10 µM [1, 20]: 117% | inhibition at 10 µM [2, 21]: 118% | Quadrant (FIG. 5b) [3, 8]: Q2 | LPS % cell toxicity (primary rat microglia [4]; [22]): 67% | Fibrin % cell toxicity (primary rat microglia [5]; [23]): 72%

COc1ccc(/C=C/C(=O)Nc2ccccc2C(=O)O)cc1OC [Tranilast]
inhibition at 10 µM [1, 11]: 35% | inhibition at 10 µM [2, 12]: 22% | Quadrant (FIG. 5b) [3, 13]: Q4 | LPS % cell toxicity (primary rat microglia [4]; [14]): 0% | Fibrin % cell toxicity (primary rat microglia [5]; [15]): 0%

CO/N=C(\C(=O)N[C@@H]1C(=O)N2C(C(=O)OC(C)OC(C)=O)=C(COC(N)=O)CS[C@H]12)c1ccco1 (some centres unmarked) [Cefuroxime Axetil]
inhibition at 10 µM [1, 16]: 17% | inhibition at 10 µM [2, 17]: 13% | Quadrant (FIG. 5b) ([3]; primary HTS, 10 μM): Q4 | LPS % cell toxicity (primary rat microglia [4]; [18]): 0% | Fibrin % cell toxicity (primary rat microglia [5]; [19]): 1%

CCCc1nc(C(C)(C)O)c(C(=O)O)n1Cc1ccc(-c2ccccc2-c2nnn[nH]2)cc1 [Olmesartan]
inhibition at 10 µM [1, 20]: -13% | inhibition at 10 µM [2, 21]: 18% | Quadrant (FIG. 5b) [3, 8]: Q4 | LPS % cell toxicity (primary rat microglia [4]; [22]): 0% | Fibrin % cell toxicity (primary rat microglia [5]; [23]): 0%

OCCN1C[C@H](O)[C@@H](O)[C@H](O)[C@H]1CO [Miglitol]
inhibition at 10 µM [1, 20]: -9% | inhibition at 10 µM [2, 21]: 13% | Quadrant (FIG. 5b) [3, 8]: Q4 | LPS % cell toxicity (primary rat microglia [4]; [22]): 0% | Fibrin % cell toxicity (primary rat microglia [5]; [23]): 0%

COc1cc2c(cc1OC)[C@@]13CCN4CC5=CCO[C@H]6CC(=O)N2[C@H]1[C@H]6[C@H]5C[C@H]43 [Brucine]
inhibition at 10 µM [1, 16]: 6% | inhibition at 10 µM [2, 17]: 13% | Quadrant (FIG. 5b) ([3]; primary HTS, 10 μM): Q4 | LPS % cell toxicity (primary rat microglia [4]; [18]): 0% | Fibrin % cell toxicity (primary rat microglia [5]; [19]): 1%

Cc1cc(=O)[nH]c(=S)[nH]1 [Methylthiouracil]
inhibition at 10 µM [1, 20]: 31% | inhibition at 10 µM [2, 21]: 16% | Quadrant (FIG. 5b) [3, 8]: Q4 | LPS % cell toxicity (primary rat microglia [4]; [22]): 0% | Fibrin % cell toxicity (primary rat microglia [5]; [23]): 0%

CN(C/C=C/C#CC(C)(C)C)Cc1cccc2ccccc12 [Terbinafine, Terbinafine Hydrochloride]
Fibrin % inhibition [1, 11]: −23% | LPS % inhibition [2, 12]: 6% | Quadrant (FIG. 5b) [3, 13]: Q4 | LPS % cell toxicity (primary rat microglia [4]; [14]): 0% | Fibrin % cell toxicity (primary rat microglia [5]; [15]): 0%

N=C(N)NCC1COC2(CCCCC2)O1 (centres unmarked) [Guanadrel]
inhibition at 10 µM [1, 6]: -1% | inhibition at 10 µM [2, 7]: 5% | Quadrant (FIG. 5b) [3, 8]: Q4 | LPS % cell toxicity (primary rat microglia [4]; [9]): 0% | Fibrin % cell toxicity (primary rat microglia [5]; [10]): 1%

CC(C)[C@H](N)C(=O)OCCOCn1cnc2c(=O)[nH]c(N)nc21 [Valaciclovir]
inhibition at 10 µM [1, 11]: 12% | inhibition at 10 µM [2, 12]: 15% | Quadrant (FIG. 5b) [3, 13]: Q4 | LPS % cell toxicity (primary rat microglia [4]; [14]): 0% | Fibrin % cell toxicity (primary rat microglia [5]; [15]): 1%

C[C@@H](O)[C@@H]1NC(=O)[C@H](CCCCN)NC(=O)[C@@H](Cc2c[nH]c3ccccc23)NC(=O)[C@H](Cc2ccccc2)NC(=O)[C@@H](NC(=O)[C@H](N)Cc2ccccc2)CSSC[C@@H](C(=O)N[C@H](CO)[C@@H](C)O)NC1=O [Octreotide]
Fibrin % inhibition [1, 20]: 3% | LPS % inhibition ([2]; primary microglia HTS, LPS stimulation, increased cell size (>800 μm^2) as marker of activation): −5% | Quadrant (FIG. 5b) [3, 8]: Q4 | LPS % cell toxicity (primary rat microglia [4]; [22]): 1% | Fibrin % cell toxicity (primary rat microglia [5]; [23]): 1%
